Experiments:
[1] = system: IL-1β release from primary human astrocytes; assay: LPS-induced cytokine release from primary human astrocytes, IL-1β; format: cell-based
Description: (§1) The following study was undertaken to investigate whether contemplated compounds and (+)NLX affect LPS-induced release of the pro-inflammatory cytokine (IL-1β, IL-6 and TNF-α) release from primary human astrocytes. […]
(§2) Primary astrocytes culture was prepared according to the provider's instructions (Lonza). The adherent astrocytes were trypsinized by 0.25% trypsin-EDTA, then collected and sub-cultured in 12-well plate (1.2 ml/well). […] Vehicle groups were pretreated with 0.1% DMSO only. Following addition of LPS, incubation continued for 24 hours. Culture medium was used as the blank and the levels of cytokines, TNF-α, IL-6 and IL-1β in 200 μl of culture medium were determined. Each well was sampled twice.
(§3) Plates were washed 3 times with ice-cold 50 mM Tris HCl (pH 7.4) and incubated at 30° C. with 200 μl medium derived from the above mentioned conditions. Plates were washed 3 times with ice-cold 50 mM Tris HCl (pH 7.4) and incubated at 30° C. with 0.5 μg/well un-conjugated rabbit anti-anti-INF-α, -IL-6 and -IL-1β for 1 hour. After two 1 minute washes with 50 mM Tris HCl (pH 7.4), each well was incubated in 0.5 μg/well FITC-conjugated anti-rabbit IgG (human and mouse absorbed) for 1 hour at 30° C. Plates were washed twice with 200 μl ice-cold Tris HCl, pH 7.4 and the residual […] signals were determined by multimode plate reader, DTX880 (Beckman).

[2] = system: TNF-α release from primary human astrocytes; assay: LPS-induced cytokine release from primary human astrocytes, TNF-α; format: cell-based
Description: as §1, §2, §3

[3] = system: IL-6 release from primary human astrocytes; assay: LPS-induced cytokine release from primary human astrocytes, IL-6; format: cell-based
Description: as §1, §2, §3

[4] = Mouse hot-water tail-flick test; format: in vivo; details: orally administered
Description: The mouse “tail flick” test was used to assay the relative antinociceptive activity of compositions containing a compound to be assayed. This assay was substantially that disclosed by Xie et al., 2005 J. Neurosci 25:409-416.
The mouse hot-water tail-flick test was performed by placing the distal third of the tail in a water bath maintained at 52° C. The latency until tail withdrawal from the bath was determined and compared among the treatments. A 10 second cutoff was used to avoid tissue damage. Data are converted to percentage of antinociception by the following formula: (response latency−baseline latency)/(cutoff−baseline latency)×100 to generate dose-response curves. […] Relative potency was determined as a ratio of the A50 values.
To assess tolerance to the antinociceptive effect, the compound was administered twice daily for 7 days at an A90 dose (dose that results in a 90% antinociceptive effect in the 52° C. warm-water tail-flick test), and the tail-flick test was performed daily after the a.m. dose. […] Assays were typically carried out separately using at least 32 and 56 mg/kg dosages, with some assays also separately carried out at 18 and 100 mg/kg.

mu opiate receptor (MOR) = target: T1, mu opiate receptor (MOR) (Rattus norvegicus, UniProt P33535); assay: MOR agonist activity, [35S]GTPγS binding assay using striatal membranes; format: biochemical; set-up: MOR agonist activity, [35S]GTPγS binding to Gαo: reference not given here; details: for % DAMGO (0.1 μM): 0.1 μM compound relative to DAMGO; for % DAMGO + BFNA: 1 μM compound + BFNA relative to DAMGO + BFNA; for % DAMGO (1 μM): 1 μM compound relative to DAMGO
T1 construct: from tissue; host or cells: striatal membrane preparation (rat striatum)
Description: To assess the mu opiate receptor (MOR) agonist activity of positive compounds from the FLNA screening, compounds were tested in a [^35S]GTPγS binding assay using striatal membranes.
Striatal tissue was homogenized in 10 volumes of ice cold 25 mM HEPES buffer, pH 7.4, which contained 1 mM EGTA, 100 mM sucrose, 50 μg/ml leupeptin, 0.04 mM PMSF, 2 μg/ml soybean trypsin inhibitor and 0.2% 2-mercaptoethanol. The homogenates were centrifuged at 800×g for 5 minutes and the supernatants were centrifuged at 49,000×g for 20 minutes. The resulting pellets were suspended in 10 volume of reaction buffer, which contained 25 mM HEPES, pH 7.5, 100 mM NaCl, 50 μg/ml leupeptin, 2 μg/ml soybean trypsin inhibitor, 0.04 mM PMSF and 0.02% […].
The resultant striatal membrane preparation (200 μg) was admixed and maintained (incubated) at 30° C. for 5 minutes in reaction buffer as above that additionally contained 1 mM MgCl2 and 0.5 nM [^35S]GTPγS (0.1 μCi/assay, PerkinElmer Life and Analytical Sciences) in a total volume of 250 μl and continued for 5 minutes in the absence or presence of 0.1-10 μM of an assayed compound of interest. The reaction was terminated by dilution with 750 μl of ice-cold reaction buffer that contained 20 mM MgCl2 and 1 mM EGTA and immediate centrifugation at 16,000×g for 5 minutes.
The resulting pellet was solubilized by sonicating for 10 seconds in 0.5 ml of immunoprecipitation buffer containing 0.5% digitonin, 0.2% sodium cholate and 0.5% NP-40. Normal rabbit serum (1 μl) was added to 1 ml of lysate and incubated at 25° C. for 30 minutes. Nonspecific immune complexes were removed by incubation with 25 μl of protein A/G-conjugated agarose beads at 25° C. for 30 minutes followed by centrifugation at 5,000×g at 4° C. for 5 minutes. The supernatant was divided and separately incubated at 25° C. for 30 minutes with antibodies raised against Gαo proteins (1:1,000 dilutions).
The immunocomplexes so formed were collected by incubation at 25° C. for 30 minutes with 40 μl of agarose-conjugated protein A/G beads and centrifugation at 5,000×g at 4° C. for 5 minutes. The pellet was washed and suspended in buffer containing 50 mM Tris-HCl, pH 8.0, and 1% NP-40. The radioactivity in the suspension was determined by liquid scintillation spectrometry. […] DAMGO (H-Tyr-D-Ala-Gly-N-MePhe-Gly-OH; 1 or 10 μM) was used as a positive control.

[5] = target: Bn-VAKGL pentapeptide of filamin A (FLNA) (Homo sapiens, UniProt P21333); assay: FITC-NLX-based FLNA screening assay (FLNA peptide binding assay); details: 10 nM FITC-NLX
Description: The final assay volume is 100 μl.
Compounds are tested in triplicate or quadruplicate.

[6] = 10 pM compound 2 hours prior to LPS (1 μg/ml) and continued 24 hours
[7] = 1 nM compound 2 hours prior to LPS (1 μg/ml) and continued 24 hours
[8] = 100 nM compound 2 hours prior to LPS (1 μg/ml) and continued 24 hours
[9] = 100 fM compound 2 hours prior to LPS (1 μg/ml) and continued 24 hours
[10] = 0.1 μM compound, striatal membranes
[11] = 1 μM compound + BFNA (1 μM β-funaltrexamine)
[12] = 1 μM compound, striatal membranes

T1 sequence (P33535 whole entry): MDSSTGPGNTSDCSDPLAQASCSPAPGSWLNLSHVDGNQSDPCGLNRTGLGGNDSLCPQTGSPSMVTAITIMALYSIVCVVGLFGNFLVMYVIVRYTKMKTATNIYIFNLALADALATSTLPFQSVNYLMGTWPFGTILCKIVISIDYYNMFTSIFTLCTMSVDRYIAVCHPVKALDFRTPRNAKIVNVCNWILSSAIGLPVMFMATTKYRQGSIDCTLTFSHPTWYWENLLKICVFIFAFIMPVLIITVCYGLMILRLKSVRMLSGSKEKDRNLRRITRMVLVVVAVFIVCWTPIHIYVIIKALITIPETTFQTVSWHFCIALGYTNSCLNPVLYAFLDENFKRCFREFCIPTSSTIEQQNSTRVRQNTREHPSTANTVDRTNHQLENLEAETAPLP

Row | SMILES | IL-1β Average % (±SEM) [1, 6] | IL-1β Average % (±SEM) [1, 7] | TNF-α Average % (±SEM) [2, 6] | TNF-α Average % (±SEM) [2, 7] | IL-6 Average % (±SEM) [3, 6] | IL-6 Average % (±SEM) [3, 7] | Maximum Antinociception (%) ([4]; 56 mg/kg) | Time to Max. ([4]; 56 mg/kg) [min] | MOR agonist activity, [35S]GTPγS binding to Gαo (mu opiate receptor (MOR); [10]) [%] | MOR agonist activity, [35S]GTPγS binding to Gαo (mu opiate receptor (MOR); [11]) [%] | MOR agonist activity, [35S]GTPγS binding to Gαo (mu opiate receptor (MOR); [12]) [%] | also measured
1 | C=CCN1CC[C@]23c4c5ccc(O)c4O[C@H]2C(=O)CC[C@]3(O)[C@H]1C5 [(+)Naloxone, (+)naloxone, reference compound] | 75.9 (4.5) % | 10.5 (4.8) % | 58.6 (2.0) % | 9.2 (6.0) % | 56.9 (4.4) % | 6.8 (4.3) % |  |  |  |  |  | 
2 | COc1ccc(S(=O)(=O)N2CCSC23CCNCC3)cc1 [S-C0027] | 85.8 (1.3) % | 81.9 (2.3) % | 73.6 (3.8) % | 72.7 (0.7) % | 75.6 (1.5) % | 77.4 (4.2) % | 70 | 30 | 156.2 | 56.2 | 286.8 | IL-1β Average % (±SEM) [1, 8]: 79.5 (2.4) %; IL-1β Average % (±SEM) [1, 9]: 86.8 (2.0) %; TNF-α Average % (±SEM) [2, 8]: 74.0 (1.7) %; TNF-α Average % (±SEM) [2, 9]: 77.7 (2.7) %; Maximum Antinociception (%) ([4]; 100 mg/kg): 90%; Time to Max. ([4]; 100 mg/kg): 30 min; IL-6 Average % (±SEM) [3, 8]: 83.1 (2.1) %; IL-6 Average % (±SEM) [3, 9]: 81.0 (1.7) %
3 | O=S(=O)(c1ccc(F)cc1)N1CCOC12CCN(CC1CC1)CC2 [F-C0134] | 78.0 (5.5) % | 77.7 (2.9) % | 75.7 (1.8) % | 77.4 (4.2) % | 78.8 (1.5) % | 78.2 (1.8) % | 93 | 20 |  |  |  | IL-1β Average % (±SEM) [1, 8]: 73.2 (3.9) %; IL-1β Average % (±SEM) [1, 9]: 73.3 (5.3) %; TNF-α Average % (±SEM) [2, 8]: 75.4 (1.6) %; TNF-α Average % (±SEM) [2, 9]: 77.0 (2.8) %; IL-6 Average % (±SEM) [3, 8]: 76.3 (2.8) %; IL-6 Average % (±SEM) [3, 9]: 81.3 (2.4) %
4 | COc1ccc(S(=O)(=O)N2CCOC23CCN(C(=O)OC(C)(C)C)CC3)cc1 [Compound C0043] |  |  |  |  |  |  |  |  | 175.4 | 83.3 | 242.6 | Percent inhibition of FITC-NLX binding ([5]; 0.01 μM compound): 43.9%; Percent inhibition of FITC-NLX binding ([5]; 0.1 μM compound): 51.3%; Percent inhibition of FITC-NLX binding ([5]; 1 μM compound): 58.0%; % DAMGO (0.1 μM) (mu opiate receptor (MOR)): 103.8%; % DAMGO + BFNA (mu opiate receptor (MOR)): 501.8%; % DAMGO (1 μM) (mu opiate receptor (MOR)): 110.9%
5 | CN1CC[C@]23c4c5ccc(O)c4O[C@H]2[C@@H](O)C=C[C@H]3[C@H]1C5 [morphine, reference compound] |  |  |  |  |  |  | 43 | 20 |  |  |  | 
6 | O=[N+]([O-])c1ccc(S(=O)(=O)N2CCC3(CC2)NCCCO3)cc1 [Compound C0045] |  |  |  |  |  |  |  |  | 149.2 | 105.3 | 238.8 | Percent inhibition of FITC-NLX binding ([5]; 0.01 μM compound): 39.1%; Percent inhibition of FITC-NLX binding ([5]; 0.1 μM compound): 48.9%; Percent inhibition of FITC-NLX binding ([5]; 1 μM compound): 53.7%; % DAMGO (0.1 μM) (mu opiate receptor (MOR)): 88.3%; % DAMGO + BFNA (mu opiate receptor (MOR)): 634.3%; % DAMGO (1 μM) (mu opiate receptor (MOR)): 109.1%
7 | CCOC(=O)CN1CCC2(CC1)OCCN2S(=O)(=O)c1ccc(C(C)=O)cc1 [Compound C0099M] |  |  |  |  |  |  |  |  | 157.2 | 114.7 | 195.7 | 
8 | COc1ccc(S(=O)(=O)N2CCOC23CCN(C(C)C)CC3)cc1 [Compound C0133M] |  |  |  |  |  |  |  |  | 139.4 | 72.4 | 214.8 | 

— patent US8614324B2, “Filamin A binding anti-inflammatory and analgesic” (priority 2008, dated 2013)
